# Measured values from PubChem BioAssay (NCI).
# Values joined by “and” are separate entries in the source; they are usually repeats but may differ in a detail not shown here. Equal values may be shown once.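 Interpolation was linear, between the two tested concentrations surrounding the appropriate level; five concentrations were tested over 48 hours in 96-well plates. GI50 marks 50% less growth. The concentration for full growth arrest is given as TGI.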
# Columns and labels:
# Assay in all cases: growth of human tumour cells (NCI), 48 h
# HCC-2998 colon = system: HCC-2998 colon
# HT29 colon = system: HT29 colon
# MALME-3M melanoma = system: MALME-3M melanoma
# MDA-MB-231 breast = system: MDA-MB-231 breast
# MOLT-4 leukemia = system: MOLT-4 leukemia
# OVCAR-4 ovarian = system: OVCAR-4 ovarian
# RPMI-8226 leukemia = system: RPMI-8226 leukemia
# SF-539 CNS = system: SF-539 CNS
# SR leukemia = system: SR leukemia
# HL-60(TB) leukemia = system: HL-60(TB) leukemia
SMILES,GI50 (HCC-2998 colon) [µM],TGI (HCC-2998 colon),GI50 (HT29 colon) [µM],TGI (HT29 colon),GI50 (MALME-3M melanoma) [µM],TGI (MALME-3M melanoma),GI50 (MDA-MB-231 breast) [µM],TGI (MDA-MB-231 breast) [µM],GI50 (MOLT-4 leukemia) [µM],TGI (MOLT-4 leukemia),GI50 (OVCAR-4 ovarian) [µM],TGI (OVCAR-4 ovarian),GI50 (RPMI-8226 leukemia) [µM],TGI (RPMI-8226 leukemia),GI50 (SF-539 CNS) [µM],TGI (SF-539 CNS),GI50 (SR leukemia) [µM],TGI (SR leukemia),TGI (HL-60(TB) leukemia),GI50 (HL-60(TB) leukemia) [µM]
COc1ccc(N=C2NN=C(c3c[nH]c4ccccc34)CS2)cc1OC,9.57,> 48.3 µM,4.01,> 43.6 µM,15,> 69.1 µM,8.73,> 100,3.29,> 100 µM,16,> 100 µM,3.66,> 29.6 µM,8.25,> 100 µM,0.181,> 100 µM,,
N#Cc1ccc(N2Cc3cc(Cl)ccc3OC3=C2C(=O)N(Cc2ccccc2)C3=O)cc1,1.89,3.65 µM,1.58,3.96 µM,1.44,3.08 µM,1.74,3.99,0.25,0.818 µM,1.41,3.26 µM,0.28,1.06 µM,1.7,3.19 µM,0.242,0.828 µM,,
Cc1[nH]c(=O)nc(N/N=C/c2ccc(O)cc2)c1C(=O)Nc1ccc(Cl)cc1,,> 100 µM,,,,> 100 µM,,,,> 100 µM,,> 100 µM,,> 100 µM,,> 100 µM,,> 100 µM,> 100 µM,
Cc1cccc(N2C(=O)/C(=C/c3ccc(N(CCC#N)CCC#N)cc3C)N=C2c2cc([N+](=O)[O-])ccc2Cl)c1,,> 100 µM,,> 100 µM,,> 100 µM,,,,> 100 µM,,> 100 µM,,> 100 µM,,> 100 µM,,> 100 µM,> 100 µM,
OCCCCC#Cc1ccccc1C#Cc1cnccn1,33,> 100 µM,27.6,> 100 µM,47.9,> 100 µM,18,54.9,29.8,> 100 µM,28.5,> 100 µM,26.7,> 100 µM,53.8,> 100 µM,28.1,> 100 µM,,
CCCCCCCCC(=O)NCCCNCCCNC(=O)CCCCCCCC,,6.67 µM,,7.5 µM,,26.6 µM,,,,10.4 µM,,29.9 µM,,11 µM,,29.9 µM,,5.81 µM,3.77 µM,
CN1C(=O)C23CC4=CC=CC(O)C4N2C(=O)C1(CO)SS3 (stereo not drawn),,0.351 µM,,11.4 µM,,0.449 µM,,0.373,,0.447 µM,,0.524 µM,,0.591 µM,,0.17 µM,,0.0996 µM,,
Cc1ns/c(=N\C(=S)N(C)C)n1C,,> 100 µM,,> 100 µM,,> 100 µM,,,,> 100 µM,,> 100 µM,,> 100 µM,,> 100 µM,,> 100 µM,> 100 µM,
O=c1c2cc(F)ccc2sc2c(NCCCN3CCCC3)nc3ccccc3c12,1.67,3.25 µM,,,1.77,3.37 µM,1.55,3.2,1.97,4.22 µM,2.01,4.61 µM,,,1.69,3.19 µM,2.75,6.51 µM,4.58 µM,2.06
N#CC(=C=[N-])[n+]1ccc(Cl)cc1,,,,33.8 µM,,30.6 µM,,,,> 100 µM,,39.8 µM,,60.7 µM,,43.2 µM,,62.2 µM,20.4 µM,
O=C1c2ccccc2C(=O)c2c1ccc1c3ccccc3n(Cc3ccccc3)c21,,,,> 100 µM,,> 100 µM,,,,> 100 µM,,> 100 µM,,> 100 µM,,> 100 µM,,> 100 µM,> 100 µM,
O=C1/C(=C/c2ccccc2)CN(C(=O)Oc2ccc([N+](=O)[O-])cc2)C/C1=C\c1ccccc1,1.33,5.99 µM and 3.3 µM,,4.36 µM and 4.04 µM,,,,,1.21,4.83 µM and 4.45 µM,1.77,7.87 µM and 4.15 µM,0.0844,0.428 µM and 0.424 µM,,,0.261,5.54 µM and 0.775 µM,3.97 µM and 5.9 µM,1.73
CCCCCCCCCCCCCCCC(=O)N[C@H]1CCc2cc(OC)c(OC)c(OC)c2-c2ccc(SC)c(=O)cc21,2.42,1.87 µM and 6.82 µM,1.81,0.853 µM and 4.66 µM,0.345,16.3 µM and 1.67 µM,,,3.21,19.6 µM and 13.1 µM,8.65,80 µM and > 100 µM,,22.7 µM,1.24,2.08 µM and 3.64 µM,0.597,8.28 µM and 13.2 µM,1.35 µM and 6.82 µM,2.01
CCC1NCC(=O)c2c1[nH]c1ccccc21 (stereo not drawn),,> 100 µM,,> 100 µM,,> 100 µM,,,,> 100 µM,,> 100 µM,,> 100 µM,,> 100 µM,,> 100 µM,> 100 µM,
CC(C)=C1CCC(CN2CCCC2)C1=O (stereo not drawn),,34.6 µM,,53.5 µM,,37.2 µM,,,,44.3 µM,,32.3 µM,,37.8 µM,,> 100 µM,,35.9 µM,50.8 µM,
